Source: patent publication US7396837B2, “Antitumoral analogs of lamellarins” (Pharma Mar, S.A.U., priority 2002, dated 2008)
Where two headings read alike, the source gives them in different places.

Legend:
Type in all cases: cell-based
A-549 = experiment: SRB colorimetric cell growth inhibition assay, A-549; details: for GI50: GI=growth inhibition, read-out: GI50 A-549
Excerpt: (§1) The finality of these assays is to interrupt the growth of an “in vitro” tumor cell culture by means a continued exhibition of the cells to the sample to be testing.
(§2) A colorimetric type of assay, using sulforhodamine B (SRB) reaction has been adapted for a quantitative measurement of cell growth and viability (following the technique described by P. A. Skehan, et al., J. Natl. Cancer Inst. 1990, 82, 1107-1112).
(§3) This form of assay employs 96 well cell culture microplates of 9 mm diameter (T. Mosmann et al., J. of Immunological Methods 1983, 65, 55-63; G. T. Faircloth et al., J. of Tissue and Culture Methods 1988, 11, 201-205).
(§4) Most of the cell lines are obtained from American Type Culture Collection (ATCC) derived from different human cancer types.
(§5) The values for mean +/− SD of data from triplicate wells are calculated. Some parameters for cellular responses can be calculated: GI=growth inhibition, TGI=total growth inhibition (cytostatic effect) and LC=cell killing (cytotoxic effect).

SK-MEL-28 = experiment: SRB colorimetric cell growth inhibition assay, SK-MEL-28; details: for GI50: GI=growth inhibition, read-out: GI50 MEL-28; for CC50: cell killing (cytotoxic effect), read-out: LC50 MEL-28
Excerpt: as §1, §2, §3, §4, §5

HT-29 = experiment: SRB colorimetric cell growth inhibition assay, HT-29; details: for GI50: GI=growth inhibition, read-out: GI50 HT-29
Excerpt: as §1, §2, §3, §4, §5

LoVo = experiment: SRB colorimetric cell growth inhibition assay, LoVo; details: for GI50: GI=growth inhibition, read-out: GI50 LOVO
Excerpt: as §1, §2, §3, §4, §5

LoVo-Dox = experiment: SRB colorimetric cell growth inhibition assay, LoVo-Dox (MDR); details: LOVO-DOX; for GI50: GI=growth inhibition, read-out: GI50 LOVO-DOX
Excerpt: as §1, §2, §3, §4, §5

DU-145 = experiment: SRB colorimetric cell growth inhibition assay, DU-145; details: for GI50: GI=growth inhibition, read-out: GI50 DU-145; for CC50: cell killing (cytotoxic effect), read-out: LC50 DU-145
Excerpt: as §1, §2, §3, §4, §5

SK-BR-3 = experiment: SRB colorimetric cell growth inhibition assay, SK-BR-3; details: for GI50: GI=growth inhibition, read-out: GI50 SK-BR-3; for CC50: cell killing (cytotoxic effect), read-out: LC50 SK-BR-3
Excerpt: as §1, §2, §3, §4, §5

IGROV = experiment: SRB colorimetric cell growth inhibition assay, IGROV; details: IGROV; for GI50: GI=growth inhibition, read-out: GI50 IGROV; for CC50: cell killing (cytotoxic effect), read-out: LC50 IGROV
Excerpt: as §1, §2, §3, §4, §5

IGROV-ET = experiment: SRB colorimetric cell growth inhibition assay, IGROV-ET (ET-743 resistant); details: IGROV-ET; for GI50: GI=growth inhibition, read-out: GI50 IGROV-ET; for CC50: cell killing (cytotoxic effect), read-out: LC50 IGROV-ET
Excerpt: as §1, §2, §3, §4, §5

HeLa = experiment: SRB colorimetric cell growth inhibition assay, HeLa; details: Homo sapiens, HeLa; for GI50: GI=growth inhibition, read-out: GI50 HELA; for CC50: cell killing (cytotoxic effect), read-out: LC50 HELA; for IC (TGI): total growth inhibition (cytostatic effect), read-out: TGI HELA
Excerpt: as §1, §2, §3, §4, §5

HeLa-APL = experiment: SRB colorimetric cell growth inhibition assay, HeLa-APL (aplidine resistant); details: Homo sapiens, HELA-APL; for GI50: GI=growth inhibition, read-out: GI50 HELA-APL; for CC50: cell killing (cytotoxic effect), read-out: LC50 HELA-APL; for IC (TGI): total growth inhibition (cytostatic effect), read-out: TGI HELA-APL
Excerpt: as §1, §2, §3, §4, §5

PANC-1 = experiment: SRB colorimetric cell growth inhibition assay, PANC-1; details: for GI50: GI=growth inhibition, read-out: GI50 PANC-1
Excerpt: as §1, §2, §3, §4, §5

[1] = total growth inhibition (cytostatic effect)
[2] = Homo sapiens, SK-MEL-28, MEL-28

COc1cc2ccn3c(c(-c4ccc(OC(=O)[C@@H](N)C(C)C)c(OC)c4)c4c5cc(OC)c(OC(=O)[C@@H](N)C(C)C)cc5oc(=O)c43)c2cc1OC [Compound 14]
GI50 (A-549; A-549): 0.555 µM | TGI A-549 (A-549; A-549, total growth inhibition (cytostatic effect)): 1.40E−05 Molar | GI50 (SK-MEL-28; MEL-28): 1.42 µM | CC50 (SK-MEL-28; MEL-28): 14 µM | TGI MEL-28 (SK-MEL-28; MEL-28, total growth inhibition (cytostatic effect)): 1.40E−05 Molar | GI50 (HT-29; HT-29): 2.47 µM | TGI HT-29 (HT-29; HT-29, total growth inhibition (cytostatic effect)): 7.26E−06 Molar | GI50 (LoVo; LOVO): 0.597 µM | TGI LOVO (LoVo; LOVO, total growth inhibition (cytostatic effect)): 2.47E−06 Molar | GI50 (LoVo-Dox): 0.497 µM | TGI LOVO-DOX (LoVo-Dox; [1]): 1.45E−06 Molar | GI50 (DU-145; DU-145): 0.517 µM | CC50 (DU-145; DU-145): 14 µM | TGI DU-145 (DU-145; DU-145, total growth inhibition (cytostatic effect)): 2.19E−06 Molar | GI50 (SK-BR-3; SK-BR-3): 0.0424 µM | CC50 (SK-BR-3; SK-BR-3): 14 µM | TGI SK-BR-3 (SK-BR-3; SK-BR-3, total growth inhibition (cytostatic effect)): 9.88E−08 Molar | GI50 (IGROV): 0.49 µM | CC50 (IGROV): 14 µM | TGI IGROV (IGROV; [1]): 2.44E−06 Molar | GI50 (IGROV-ET): 0.745 µM | CC50 (IGROV-ET): 14 µM | TGI IGROV-ET (IGROV-ET; [1]): 4.97E−06 Molar | GI50 (HeLa): 1.83 µM | CC50 (HeLa): 12.4 µM | IC (TGI) (HeLa): 9.63 µM | GI50 (HeLa-APL): 2.6 µM | CC50 (HeLa-APL): 12.4 µM | IC (TGI) (HeLa-APL): 12.1 µM | GI50 (PANC-1; PANC-1): 1.18 µM | TGI PANC-1 (PANC-1; PANC-1, total growth inhibition (cytostatic effect)): 1.40E−05 Molar

COc1cc2ccn3c(c(-c4ccc(OC(=O)[C@H](C)N)c(OC)c4)c4c5cc(OC)c(OC(=O)[C@H](C)N)cc5oc(=O)c43)c2cc1OC [Compound 20]
GI50 (A-549; Homo sapiens, A549, A-549): 0.589 µM | CC50 (A-549; Homo sapiens, A549, A-549, cell killing (cytotoxic effect), read-out: LC50 A-549): 15.3 µM | IC (TGI) (A-549; Homo sapiens, A549, A-549, total growth inhibition (cytostatic effect), read-out: TGI A-549): 15.3 µM | GI50 (SK-MEL-28; [2]): 2.24 µM | CC50 (SK-MEL-28; [2]): 15.3 µM | IC (TGI) (SK-MEL-28; Homo sapiens, SK-MEL-28, MEL-28, total growth inhibition (cytostatic effect), read-out: TGI MEL-28): 15.3 µM | GI50 (HT-29; Homo sapiens, HT-29, HT-29): 3.58 µM | CC50 (HT-29; Homo sapiens, HT-29, HT-29, cell killing (cytotoxic effect), read-out: LC50 HT-29): 15.3 µM | IC (TGI) (HT-29; Homo sapiens, HT-29, HT-29, total growth inhibition (cytostatic effect), read-out: TGI HT-29): 15.3 µM | GI50 (LoVo; Homo sapiens, LoVo): 0.436 µM | CC50 (LoVo; Homo sapiens, LoVo, cell killing (cytotoxic effect), read-out: LC50 LOVO): 15.3 µM | IC (TGI) (LoVo; Homo sapiens, LoVo, total growth inhibition (cytostatic effect), read-out: TGI LOVO): 8.83 µM | GI50 (LoVo-Dox; Homo sapiens): 0.525 µM | CC50 (LoVo-Dox; Homo sapiens, cell killing (cytotoxic effect), read-out: LC50 LOVO-DOX): 15.3 µM | IC (TGI) (LoVo-Dox; Homo sapiens, total growth inhibition (cytostatic effect), read-out: TGI LOVO-DOX): 2.06 µM | GI50 (DU-145; Homo sapiens, DU-145, DU-145): 0.5 µM | CC50 (DU-145; Homo sapiens, DU-145, DU-145): 15.3 µM | IC (TGI) (DU-145; Homo sapiens, DU-145, DU-145, total growth inhibition (cytostatic effect), read-out: TGI DU-145): 2.36 µM | GI50 (SK-BR-3; Homo sapiens, SK-BR-3, SK-BR-3): 0.0548 µM | CC50 (SK-BR-3; Homo sapiens, SK-BR-3, SK-BR-3): 15.3 µM | IC (TGI) (SK-BR-3; Homo sapiens, SK-BR-3, SK-BR-3, total growth inhibition (cytostatic effect), read-out: TGI SK-BR-3): 0.238 µM | GI50 (IGROV; Homo sapiens): 0.516 µM | CC50 (IGROV; Homo sapiens): 15.3 µM | IC (TGI) (IGROV; Homo sapiens, total growth inhibition (cytostatic effect), read-out: TGI IGROV): 7.46 µM | GI50 (IGROV-ET; Homo sapiens): 0.593 µM | CC50 (IGROV-ET; Homo sapiens): 15.3 µM | IC (TGI) (IGROV-ET; Homo sapiens, total growth inhibition (cytostatic effect), read-out: TGI IGROV-ET): 15.3 µM | GI50 (HeLa): 1.17 µM | CC50 (HeLa): 15.3 µM | IC (TGI) (HeLa): 15.3 µM | GI50 (HeLa-APL): 2.09 µM | CC50 (HeLa-APL): 15.3 µM | IC (TGI) (HeLa-APL): 15.3 µM | GI50 (PANC-1; Homo sapiens, PANC-1, PANC-1): 1.24 µM | CC50 (PANC-1; Homo sapiens, PANC-1, PANC-1, cell killing (cytotoxic effect), read-out: LC50 PANC-1): 15.3 µM | IC (TGI) (PANC-1; Homo sapiens, PANC-1, PANC-1, total growth inhibition (cytostatic effect), read-out: TGI PANC-1): 15.3 µM
